In patent US10233189B2 (priority 2015, dated 2019):

Experiment: Evaluation of stability in hepatic microsome
Type: in vitro ADME
Conditions: mouse hepatic microsome 0.25 mg/mL, 1 μM compound, 37° C., 30 minutes, NADPH-generating system

percentage of the remaining tested compounds (remaining %): 0%
SMILES: Cc1ccc(-c2nn(C(C)(C)C)c3ncnc(N)c23)cc1 [Compound 4 of Comparative Examples, 1-(tert-butyl)-3-(p-tolyl)pyrazolo[3,4-d]pyrimidin-4-amine]
